Assay results published in US11773127B2, “Compounds and methods for treating bacterial infections” (Washington University, priority 2017, dated 2023).
Values after ≈ are worked out from the molar mass of the structure shown. Read-outs that look alike come from different tables or passages of the source.

Legend:
[1] = biological target: T1, FmlHLD (Escherichia coli, UniProt P77588); test: biochemical; format: binding, E. coli; conditions: for inhibition of FmlHLD binding to ds-BSM, in words: soluble compound at 1 mM; for PI100 (percent inhibition): galactoside at 100 μM, 100 µM; for PI10 (percent inhibition): galactoside at 10 μM, 10 µM; for inhibitory potency against FmlH, in words: ELISA-based competition assay
T1 construct: 6xHis (C); made in house; host or cells: E. coli C600, periplasm, pTRC99a
T1 sequence (P77588 25-182): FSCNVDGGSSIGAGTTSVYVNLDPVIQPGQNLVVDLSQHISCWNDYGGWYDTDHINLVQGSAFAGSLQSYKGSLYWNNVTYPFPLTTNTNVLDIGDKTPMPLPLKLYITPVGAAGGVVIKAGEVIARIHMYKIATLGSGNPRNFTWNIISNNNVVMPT
In short: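 Sialidase-treated bovine submaxillary mucin (ds-BSM) coated wells, BSA-blocked, then biotinylated FmlH^LD (20 μg/mL) with or without compound for 1 h at room temperature. Bound lectin detected by streptavidin-HRP/TMB, A450.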

[2] = biological target: T1, FmlHLD; test: biochemical; format: binding, E. coli
Source text: Bio-layer interferometry (BLI) was used to quantitate the binding affinity of select galactosides to FmlH.
Thereafter, pins were dipped in PBS for 120 s and transferred to protein samples (varying concentration of FmlHLD or fixed concentration of FmlHLD with varying concentration of galactoside compounds) for association for 300-600 s.

[3] = Stability in simulated gastric fluid (SGF); format: in vitro ADME
Description: (§1) These compounds were assessed for their stability in simulated gastric fluid (SGF), simulated intestinal fluid (SIF), mouse liver microsomes, and blood plasma (Table 7). […] These findings are consistent with our earlier characterization of FimH antagonists (mannosides).

[4] = Stability in simulated intestinal fluid (SIF); format: in vitro ADME
Description: as §1

[5] = Mouse liver microsome stability; format: in vitro ADME
Description: as §1

[6] = Mouse plasma stability; format: in vitro ADME
Description: as §1

[7] = Kinetic solubility; format: physicochemical
[8] = Rat pharmacokinetics, plasma and urine, IV and PO; format: in vivo
Description: In this example, the concentration of compounds 3086 and 3090 in rat plasma and urine following either a 10 mg/kg oral dose (PO; circular dots) or a 3 mg/kg intravenous dose (IV; square dots) was determined (FIG. 16, panel A (3086) and panel B (3090)). […] Thus, the metabolic stability of these compounds and clearance of these compounds has no relation to the permeability (oral or otherwise) of compounds. The highly polar nature of these molecules containing the sugar GalNAc and multiple polar functionalities precludes their permeability in the gut.

[9] = read-out: % Inhibition at [μM] [1], compound at 1 μM, inhibition of FmlHLD binding to ds-BSM
[10] = read-out: % Inhibition at [μM] [10], compound at 10 μM, inhibition of FmlHLD binding to ds-BSM
[11] = read-out: % Inhibition at [μM] [100], compound at 100 μM, inhibition of FmlHLD binding to ds-BSM
[12] = Kd (μM), inhibitory constants, fixed FmlHLD, varying galactoside in solution, immobilized ser-TF
[13] = read-out: PI100 (percent inhibition), galactoside at 100 μM, mean with standard error of the mean
[14] = mean with standard error of the mean
[15] = read-out: PI1 (percent inhibition), galactoside at 1 μM, mean with standard error of the mean
[16] = read-out: PI10 (percent inhibition), galactoside at 10 μM, mean with standard error of the mean
[17] = IC50 (μM), Table 6, sulfonamides 3078-3090
[18] = rat plasma, 10 mg/kg PO or 3 mg/kg IV

SMILES: OC[C@H]1O[C@@H](Oc2cccc3cccnc23)[C@H](O)[C@@H](O)[C@H]1O [Compound 8HQG, reference compound]
- inhibition at 1 µM [1, 9]: 19.2%
- inhibition at 10 µM [1, 10]: 48.1%
- inhibition at 100 µM [1, 11]: 95.1%
- Kd ([2]; Kd): 7.1 µM

SMILES: CC(=O)N[C@@H]1[C@@H](O[C@@H]2O[C@H](CO)[C@H](O)[C@H](O)[C@H]2O)[C@H](O)[C@@H](CO)O[C@@H]1O [Gal-β1-GalNAc, reference compound]
- Kd [2, 12]: 248 ± 20.3 µM

SMILES: CC(=O)N[C@@H]1[C@@H](O[C@@H]2O[C@H](CO)[C@H](O)[C@H](O)[C@H]2O)[C@@H](O)[C@@H](CO)O[C@@H]1O [TF, Gal-β1-3-GalNAc-α, reference compound]
- inhibition at 100 µM [1, 11]: 15.5%
- inhibition at 100 µM [1, 13]: 15.5 ± 6.7%
- inhibition of FmlHLD binding to ds-BSM, in words [1]: capable of inhibiting FmlHLD
- Kd ([2]; Kd): 248 µM

SMILES: COc1ccccc1O[C@@H]1O[C@H](CO)[C@H](O)[C@H](O)[C@H]1O [Compound 5β, 2-methoxyphenyl β-D-galactopyranoside]
- PI100 (percent inhibition) [1, 14]: 97.2 ± 0.4%
- inhibition at 1 µM [1, 15]: 10 ± 4.3%
- inhibition at 10 µM [1, 16]: 55.7 ± 1.6%
- inhibition at 100 µM [1, 13]: 97%
- Kd [2, 12]: 6.5 ± 1.4 µM

SMILES: CC(=O)N[C@H]1[C@H](Oc2ccccc2[N+](=O)[O-])O[C@H](CO)[C@H](O)[C@@H]1O [Compound 4β-NAc]
- PI10 (percent inhibition) [1, 14]: 87.2 ± 1.7%
- inhibition at 1 µM [1, 15]: 28.6 ± 4.5%
- inhibition at 10 µM [1, 16]: 87%
- inhibition at 100 µM [1, 13]: 99.4 ± 1.3%
- Kd [2, 12]: 2.3 µM

SMILES: O=c1c(O[C@@H]2O[C@H](CO)[C@H](O)[C@H](O)[C@H]2O)c(-c2ccc(O)c(O)c2)oc2cc(O)cc(O)c12 [QG, reference compound]
- inhibition at 100 µM [1, 11]: 14.4%
- Kd ([2]; Kd): 391 µM

SMILES: OC[C@H]1O[C@@H](Oc2cc3c(O)cc(O)cc3[o+]c2-c2ccc(O)c(O)c2)[C@H](O)[C@@H](O)[C@H]1O [CG, reference compound]
- inhibition at 100 µM [1, 11]: 28.8%
- Kd ([2]; Kd): 212 µM

SMILES: O=C(O)c1cccc(-c2ccccc2O[C@@H]2O[C@H](CO)[C@H](O)[C@H](O)[C@H]2O)c1 [Compound 29β, 2′-(α/β-D-galactopyranosyloxy)-[1,1′-Biphenyl]-3-carboxylic acid]
- PI10 (percent inhibition) [1, 14]: 75.1 ± 1.0%
- inhibition at 1 µM [1, 15]: 22.9 ± 5.1%
- inhibition at 10 µM [1, 16]: 75%
- inhibition at 100 µM [1, 13]: 99%
- enhancement in binding affinity relative to Gal ([2]; BLI Kd ratio): ~330 fold

SMILES: CC(=O)N[C@H]1[C@H](Oc2cccc(F)c2-c2cccc(NS(C)(=O)=O)c2)O[C@H](CO)[C@H](O)[C@@H]1O [Compound 3080, N-((2S,3R,4R,5R,6R)-2-((6-fluoro-3′-(methylsulfonamido)-[1,1′-biphenyl]-2-yl)oxy)-4,5-dihydroxy-6-(hydroxymethyl)tetrahydro-2H-pyran-3-yl)acetamide]
- IC50 [1, 17]: 0.15 µM
- SGF % remaining 6 h [3]: 91.95%
- SIF % remaining 2 h [4]: 93.79%
- Mouse liver microsomes (t1/12 min) [5]: >145 min
- Mouse plasma % remaining 2 h [6]: 89.1%
- solubility kinetic [7]: 197 µM (≈ 95.4 µg/mL)

SMILES: OC[C@H]1O[C@@H](Oc2cccc3cccnc23)[C@H](O)[C@@H](O)[C@H]1O [Compound 20β]
- PI100 (percent inhibition) [1, 14]: 95.1 ± 1.1%
- inhibition at 1 µM [1, 15]: 19.2 ± 2.8%
- inhibition at 10 µM [1, 16]: 48.1 ± 2%
- inhibition at 100 µM [1, 13]: 95%
- Kd [2, 12]: 7.1 ± 2.3 µM

SMILES: COc1ccccc1O[C@@H]1O[C@H](CO)[C@H](O)[C@H](O)[C@H]1O [Compound 149e]
- inhibition at 1 µM [1, 9]: 9.99%
- inhibition at 10 µM [1, 10]: 55.7%
- inhibition at 100 µM [1, 11]: 97.2%
- Kd ([2]; Kd): 6.5 µM

SMILES: O=C(O)c1cccc(-c2ccccc2O[C@@H]2O[C@H](CO)[C@H](O)[C@H](O)[C@H]2O)c1 [Compound 200b]
- inhibition at 1 µM [1, 9]: 12.3%
- inhibition at 10 µM [1, 10]: 75.1%
- inhibition at 100 µM [1, 11]: 99%
- Kd ([2]; Kd): 2.1 µM

SMILES: CC(=O)N[C@H]1[C@H](Oc2cccc(C)c2-c2cccc(NS(=O)(=O)C3CC3)c2)O[C@H](CO)[C@H](O)[C@@H]1O [Compound 3086, N-((2S,3R,4R,5R,6R)-2-((3′-(cyclopropanesulfonamido)-6-methyl-[1,1′-biphenyl]-2-yl)oxy)-4,5-dihydroxy-6-(hydroxymethyl)tetrahydro-2H-pyran-3-yl)acetamide]
- inhibitory potency against FmlH, in words [1]: retain the same activity as the methyl sulfonamides
- IC50 [1, 17]: 0.12 µM
- SGF % remaining 6 h [3]: 100.00%
- SIF % remaining 2 h [4]: 100.00%
- Mouse liver microsomes (t1/12 min) [5]: >145 min
- Mouse plasma % remaining 2 h [6]: 84.1%
- solubility kinetic [7]: 196 µM (≈ 99.3 µg/mL)
- bioavailability ([8]; in vivo, rat, 10 mg/kg PO vs 3 mg/kg IV, read-out: oral bioavailability (F)): < 1%
- renal clearance to the urine ([8]; rat): low renal clearance to the urine
- clearance (Cl) [8, 18]: 43.8 mL/min/kg
- t1/2 [8, 18]: 1.46 h

SMILES: CC(=O)N[C@@H]1[C@H](Oc2cccc(C#N)c2-c2cccc(NS(C)(=O)=O)c2)OC(CO)[C@H](O)[C@@H]1O (stereo partly drawn) [Compound 3079, N-((2S,3S,4R,5R)-2-((6-cyano-3′-(methylsulfonamido)-[1,1′-biphenyl]-2-yl)oxy)-4,5-dihydroxy-6-(hydroxymethyl)tetrahydro-2H-pyran-3-yl)acetamide]
- IC50 [1, 17]: 0.11 µM
- SGF % remaining 6 h [3]: 86.77%
- SIF % remaining 2 h [4]: 100.00%
- Mouse liver microsomes (t1/12 min) [5]: >145 min
- Mouse plasma % remaining 2 h [6]: 89.1%
- solubility kinetic ([7]; kinetic from dmso stock): 196 µM (≈ 96.3 µg/mL)

SMILES: CC(=O)N[C@@H]1[C@@H](O)[C@@H](O)[C@@H](CO)O[C@H]1O (stereo in doubt) [GalNAc, N-acetylgalactosamine, reference compound]
- inhibition at 100 µM [1, 11]: 28.4%
- inhibition at 100 µM [1, 13]: 28.5 ± 5.2%
- inhibition of FmlHLD binding to ds-BSM, in words [1]: capable of inhibiting FmlHLD
- Kd [2, 12]: 189 ± 22.9 µM

SMILES: O=[N+]([O-])c1ccccc1O[C@@H]1O[C@H](CO)[C@H](O)[C@H](O)[C@H]1O [4β (ONPG), reference compound]
- Kd [2, 12]: 10.6 ± 4.6 µM

SMILES: CC(=O)N[C@H]1[C@H](Oc2ccccc2-c2cccc(C(=O)O)c2)O[C@H](CO)[C@H](O)[C@@H]1O [Compound 200b-GalNAc]
- inhibition at 1 µM [1, 9]: 35.1%
- inhibition at 10 µM [1, 10]: 93%
- inhibition at 100 µM [1, 11]: 99.5%
- Kd ([2]; Kd): 0.089 µM

SMILES: Cc1cccc(O[C@@H]2OC(CO)[C@H](O)[C@H](O)[C@@H]2NC(=O)C(F)(F)F)c1-c1cccc(NS(C)(=O)=O)c1 (stereo partly drawn) [Compound 3088, N-((2S,3S,4R,5R)-4,5-dihydroxy-6-(hydroxymethyl)-2-((6-methyl-3′-(methylsulfonamido)-[1,1′-biphenyl]-2-yl)oxy)tetrahydro-2H-pyran-3-yl)-2,2,2-trifluoroacetimidic acid]
- IC50 [1, 17]: 0.11 µM
- SGF % remaining 6 h [3]: 90.95%
- SIF % remaining 2 h [4]: 89.15%
- Mouse liver microsomes (t1/12 min) [5]: >145 min
- Mouse plasma % remaining 2 h [6]: 88.9%
- solubility kinetic ([7]; kinetic from dmso stock): 164 µM (≈ 87.7 µg/mL)

SMILES: CC(=O)N[C@H]1[C@H](Oc2ccccc2-c2cccc(C(N)=O)c2)O[C@H](CO)[C@H](O)[C@@H]1O [AM2033, 2′-(((2S,3R,4R,5R,6R)-3-acetamido-4,5-dihydroxy-6-(hydroxymethyl)tetrahydro-2H-pyran-2-yl)oxy)-[1,1′-biphenyl]-3-carboxamide]
- inhibitory potency against FmlH, in words [1]: equal or slightly reduced potency
- IC50 ([1]; IC50 (μM), Table 5, Gal and GalNAc inhibition of FmlH): 1.65 µM
- inhibition at 1 µM [1, 9]: 3.52%
- inhibition at 1 µM ([1]; read-out: PI(1) (average percent inhibition), compound at 1 μM, Table 4): 3.52%

SMILES: COc1cc(OC)cc(O[C@@H]2O[C@H](CO)[C@H](O)[C@H](O)[C@H]2O)c1 [Compound 7β, 3,5-dimethoxyphenyl β-D-galactopyranoside]
- PI100 (percent inhibition) [1, 14]: 76.4 ± 2.4%
- inhibition at 10 µM [1, 16]: 11.7 ± 2.7%
- inhibition at 100 µM [1, 13]: 76%

SMILES: O=[N+]([O-])c1cccc(-c2ccccc2O[C@@H]2O[C@H](CO)[C@H](O)[C@H](O)[C@H]2O)c1 [AM3049]
- IC50 ([1]; IC50, inhibition of FmlHLD binding to ds-BSM): 15 µM
